Data set [1] is described as follows: Tolerability and body weight in xenograft-bearing mice. Conditions: for body weight change: MiaPaCa-2 model, combination treatment with paclitaxel; for tolerability in mice: dosed as a single agent and in combination with paclitaxel.
In a further data set the test system is TOV-21G xenografts. Nature of the data set: TOV-21G ovarian cancer xenograft. The class given is in vivo, mice. Conditions: TOV-21G xenograft, HDAC6 inhibitor 50 mg/kg IP plus paclitaxel 10 mg/kg.
In another data set the test system is A2780 xenografts. As to the kind of experiment: A2780 ovarian cancer xenograft. Format: in vivo, mice. The conditions noted are these: HDAC6 inhibitor 50 mg/kg IP plus paclitaxel 10 mg/kg.
Data set [2] deals with TOV-21G ovarian cancer cells. Nature of the data set: Multipolar mitotic spindle scoring by α-tubulin staining. Format: cell-based. The conditions noted are these: 24 hours; for frequency of multipolar spindle formation, combination with paclitaxel: HDAC6 inhibitor 2 μM plus paclitaxel 2 nM; for frequency of multipolar mitotic spindle formation, single agent: paclitaxel 2 nM, ACY-241 2 μM, ACY-1215 2 μM, control 3.1%. The method, then: (§1) Cells grown on glass coverslips were fixed in 4% paraformaldehyde for 15 min, followed by permeabilization with 0.5% Triton X-100 in PBS for 5 min. The cells were then incubated with α-tubulin (DM1A) mouse monoclonal antibody (Cell Signaling Technology, Danvers, MA), γ-tubulin (GTU-88) mouse monoclonal antibody (Sigma-Aldrich, St. Louis, MO) or NuMA (GT3611) mouse monoclonal antibody (Thermo Scientific, Rockford, IL) followed by Alexa Fluor 488 or 546 conjugated secondary antibodies (Invitrogen, Carlsbad, CA). Images were obtained with a Zeiss AX10 microscope (Carl Zeiss Micro-Imaging, Inc., Jena, Germany) equipped with a 20 X, 40X, or 63 X objective and standard filter set.
for α-tubulin (red) and DNA (blue) identified mitotic cells with multipolar spindles. (B) The frequency of multipolar spindle formation in
M phase cells was scored in at least 50 cells per treatment condition.
(§2) (1 picture or pasted object on this page, not shown here)

A further data set has as its system MiaPaCa-2 xenografts. Nature of the data set: MiaPaCa-2 pancreatic cancer xenograft. Conditions: MiaPaCa-2 xenograft, HDAC6 inhibitor 50 mg/kg IP plus paclitaxel 10 mg/kg. The class given is in vivo, mice.
Data set [3] relates to MDA-MB-231 breast cancer cells. As to the kind of experiment: IncuCyte Caspase 3/7 apoptosis assay. The class given is cell-based. The conditions noted are these: for apoptosis (Caspase 3/7): MDA-MB-231, single agent.
Data set [4] has as its system phospho-histone H3 (pH3) positive cells. As to the kind of experiment: Phospho-histone H3 / DNA content flow cytometry for M phase cells. The class given is cell-based. Conditions: for pH3 positive cells (M phase): low dose 6 nM. The method, then: arrest. (A) Dual parameter phospho-histone H3 (y axis, M phase cells) and FxCycle Far Red (x axis, DNA content) staining indicate the […]
High dose treatment of paclitaxel (100 nM) served as a positive control for M phase arrest. (B) Phase contrast micrographs were taken at the indicated time points after treatment of the samples in panel (A).
as §2
For orientation: A flow cytometer gives signals particle by particle.

The test system of data set [5] is TOV-21G cells. As to the kind of experiment: Multipolar mitotic spindle scoring by NuMA and α-tubulin co-staining. Format: cell-based. Conditions: 24 hours.
From the text: (§3) (B) The frequency of mitotic cells with multipolar spindles was scored in at least 50 cells from each treatment condition. Shown is the mean ± SD of three independent experiments. […] Microtubules and DNA were visualized by staining with anti-α-tubulin antibody (green) and DAPI (blue), respectively. The frequency of interphase cells with visually abnormal nuclei, including satellite nuclei and multinucleation, was scored in at least 100 cells per treatment condition. Shown is the mean ± SD of three independent experiments.
as §1
(A) Immunostaining for α-tubulin (green), NuMA
(red), and DNA (blue). (B) The frequency of mitotic cells with multipolar spindles was scored in at least 100 cells from each treatment
as §2

The test system of data set [6] is A2780, TOV-21G and MDA-MB-231 cells. As to the kind of experiment: MTS cell viability assay. The class given is cell-based. The conditions noted are these: 72 h, range over A2780, TOV-21G and MDA-MB-231 cells, 3 days, read-out: single agent viability IC50. As to the method: CellTiter 96® AQueous One Solution; Promega; Madison, WI, USA) dye absorbance. Cells (A2780, TOV-21G, MDA-MB-231) from 72 hour cultures were pulsed with 5 μL of CellTiter 96® AQueous One Solution in each well. The 384-well plates were incubated at 37°C for 5 hours, and absorbance was read in triplicate at a wavelength of 490 nm (with background correction using readings at 650 nm) on a spectrophotometer (Molecular Devices Corp.; Sunnyvale, CA, USA). […] The IC50 for each agent in each cell line is indicated in the legend of each graph. Real-time kinetic trace graphs of (C) cell proliferation and (D) induction of apoptosis were generated in the MDA- MB-231 breast cancer cell line. […] The mean and SEM of three replicate samples are shown. […]
(Formazan colour is commonly taken as a measure of viable cells.)

The test system of data set [7] is MDA-MB-231 breast cancer cells. As to the kind of experiment: IncuCyte live-cell proliferation assay. Format: cell-based. The conditions noted are these: for proliferation (absolute cell number): MDA-MB-231, single agent.
Data set [8] concerns A2780, TOV-21G and MiaPaCa-2 cells. As to the kind of experiment: EdU / FxCycle flow cytometry cell cycle assessment in multiple cell lines (Figure 4B, 4C). Format: cell-based.
For data set [9], the system named is histone H3 acetylation in A2780 ovarian cancer cells. As to the kind of experiment: Immunoblotting of acetylated histone H3 (H3K56) in A2780 cells. Format: cell-based. The conditions noted are these: 24 hour treatment. The method, then:
(§4) Lysates were sonicated 2 to 3 times for 30 sec in medium (Diagenode, Bioruptor 300).
(§5) For western blot analysis, equal amounts of protein were loaded and size separated on Bolt™ 4 to 12% Bis-Tris Plus Gels. Proteins were subsequently transferred onto polyvinylidene difluoride (PVDF) membrane using an iBlot® 2 Dry Blotting System (Invitrogen). Immunoblotting was carried out according to standard protocols with antibodies against histone H3 acetyl-lysine 56 (abcam), histone-H4, pantropic (Millipore), acetyl-α-tubulin (Sigma); and β-Actin (Sigma). Antigen-antibody complexes were detected using secondary antibodies conjugated with horseradish […] (HRP) and visualized using enhanced chemiluminescence (GE Healthcare; Piscataway, NJ).
(In general: A western blot detects proteins with antibodies after separation by electrophoresis.)

The subject of data set [10] is TOV-21G cells. Nature of the data set: Live cell time-lapse imaging of cell division. The class given is cell-based. Conditions: ACY-241 2 μM plus paclitaxel 5 nM, up to 48 hours. As to the method: Time-lapse imaging was obtained on a Zeiss AX10 live-cell microscope coupled with a CO2 and temperature-maintenance system, and a time-lapse recording system supporting multi-location time series acquisition (SlideBook6 x64, Intelligent Imaging Innovations, Inc., Ringsby, CT). After staining with 10 nM Hoechst33342, TOV-21G cells were incubated in 10% CO2 at 37°C and time-lapse images were acquired at 2 min intervals up to 48 hours with a CoolSNAP HQ2 CCD camera (Photometrics, Tucson, AZ). […]
monitored by live cell time-lapse microscopy. (A) The number of observed mitotic cells, unresolved mitoses, and frequency of bipolar and multipolar division from resolved mitosis were assessed. (B) Fluorescent and matched phase-contrast time-lapse images of representative mitoses in TOV-21G cells treated with the drug combination. Numbers show elapsed time after drug treatment (hour:minute:second), the color of circles differentiates individual cells being monitored, and dashed circles indicate observation of cell death. Panels labeled with lower case letters (a-e) identify timepoints with matched phase contrast images below (a’-e’).
as §2

In data set [11] the test system is α-tubulin acetylation in A2780 and MDA-MB-231 cells. Nature of the data set: Immunoblotting of acetylated α-tubulin after combination treatment. Format: cell-based. The conditions noted are these: 48 hours. As to the method: A2780 and MDA-MB-231 cells were treated for 48 hours with the indicated concentrations of each drug and whole cell protein lysates were subjected to immunoblotting using antibodies for acetylated-α-tubulin and β-actin.
as §4, §5
For WES analysis, lysates were separated by an automated capillary-based electrophoresis system (WES, ProteinSimple, San Jose, CA). All procedures were performed according to the manufacturer's recommendations using the supplied reagents. […] The resulting data were analyzed using Compass software (ProteinSimple).

For data set [12], the system named is TOV-21G cells. As to the kind of experiment: Scoring of interphase cells with abnormal nuclei. The class given is cell-based. Conditions: 48 hours.
From the text: as §3, §1

For data set [13], the system named is α-tubulin acetylation in A2780 ovarian cancer cells. As to the kind of experiment: Immunoblotting of acetylated α-tubulin in A2780 cells. The class given is cell-based. As to the method:
as §4, §5

Where [14] appears, read: MDA-MB-231, relative to either single agent.

Each structure is given as a SMILES string.

For `O=C(CCCCCCNC(=O)c1cnc(N(c2ccccc2)c2ccccc2)nc1)NO` [ricolinostat], the body weight change result in [1] is “did not result in body weight loss”. The tolerability in mice entry in [1] is given as “well tolerated”. The “suppression of tumor growth, combination with paclitaxel” value with TOV-21G xenografts, in the data set on A2780 xenografts and with MiaPaCa-2 xenografts was “significantly greater suppression of tumor growth relative to either single agent” each time. The “frequency of multipolar spindle formation, combination with paclitaxel” value in data set [2] is 41.3%. Besides, the “frequency of multipolar mitotic spindle formation, single agent” value in data set [2] stood at 12.6%.
The IC50 is the concentration that inhibits the measured activity by half. Regarding `CC(=O)O[C@H]1C(=O)[C@@]2(C)[C@H]([C@H](OC(=O)c3ccccc3)[C@]3(O)C[C@H](OC(=O)[C@H](O)[C@@H](NC(=O)c4ccccc4)c4ccccc4)C(C)=C1C3(C)C)[C@]1(OC(C)=O)CO[C@@H]1C[C@@H]2O` [paclitaxel, reference compound], the “apoptosis (Caspase 3/7)” value in data set [3] (up to 2 nM) was “did induce apoptosis after longer duration of exposure”. The “frequency of multipolar mitotic spindle formation, single agent” value in data set [2] is reported as 15.2%. Also, the “cell cycle arrest at M phase” value in data set [4] (high concentration 100 nM, 8 to 24 hours) is “induced cell cycle arrest at mitosis (M) phase”. The “pH3 positive cells (M phase)” value in data set [4] (8 hours, DMSO […]) is given as 14%; in [4] (24 hours) it was 4.1%. Besides, the “frequency of multipolar spindle formation, single agent” value in the data set on TOV-21G cells [5] (NuMA/α-tubulin co-staining (Figure 6B)) was found to be 30.4%. In data set [6], the IC50 fell in the range of 0.0023 to 0.0032 µM. For the same molecule, in data set [7] (up to 2 nM), the “proliferation (absolute cell number)” value was “modestly reduced cell proliferation”.
For the molecule `O=C(CCCCCCNC(=O)c1cnc(N(c2ccccc2)c2ccccc2Cl)nc1)NO` [ACY-241], the “apoptosis, combination with paclitaxel” value in data set [3] (setting [14]) is recorded as “enhanced apoptosis”. Also, the “apoptosis (Caspase 3/7)” value is given as “significant induction of apoptosis” in data set [3] (10 μM) and “without inducing apoptosis” in [3] (doses up to 3 μM, 96 hours). Further, in data set [1], the body weight change entry is “did not result in body weight loss”. For the same molecule, the tolerability in mice entry in [1] is “well tolerated”. The “percentage of cells in S phase, combination with paclitaxel” value in data set [8] (A2780 and TOV-21G (3 days), MiaPaCa-2 (5 days)) is “significantly reduced the percentage of cells in S phase”. The “induction of cell death (SubG1), combination with paclitaxel” value in data set [8] (relative to control or single agent treatment) is “significantly increased induction of cell death”. Moreover, the “frequency of multipolar spindle formation, combination with paclitaxel” value was 38.6% in data set [2] and 51.5% in the data set with TOV-21G cells [5] (NuMA/α-tubulin co-staining, p = 0.0047 vs paclitaxel). The “frequency of multipolar mitotic spindle formation, single agent” value in [2] was determined as 10.7%. Moreover, the M phase arrest entry in data set [4] (2 μM, single agent or in combination with paclitaxel) is listed as “did not significantly increase M phase arrest”. Also, the “frequency of multipolar spindle formation, combination with epothilone” value in the data set with TOV-21G cells [5] (epothilone 0.5 nM plus ACY-241) came to 51.3%. Besides, the IC50 in data set [6] was 4.6 to 6.1 µM. Besides, the “doses at which hyperacetylation of histone H3 was observed” value in data set [9] was “above 1 μM”. In addition, the “frequency of multipolar cell division, combination with paclitaxel” value in the data set with TOV-21G cells [10] is on record as “increased the frequency of multipolar cell division compared to each single agent”. The “α-tubulin hyperacetylation, combination with paclitaxel” value in data set [11] is “synergistic increase in α-tubulin hyperacetylation”. Moreover, the “frequency of cells with visually abnormal nuclei, combination with paclitaxel” value in the data set with TOV-21G cells [12] is recorded as “significantly increased the frequency of cells with visually abnormal nuclei”. In data set [13] (24 hour treatment, 300 nM), the “hyperacetylation of α-tubulin” value was “increased hyperacetylation of α-tubulin”. Besides, in [13] (range of concentrations, 24 hours), the “α-tubulin hyperacetylation, dose dependence” value is on record as “dose-dependent increase in α-tubulin hyperacetylation”. In addition, in the data set with MiaPaCa-2 xenografts, the “suppression of tumor growth, combination with paclitaxel” value is “similarly significant efficacy”. The “proliferation, combination with paclitaxel” value in data set [7] (setting [14]) is “significantly reduced proliferation”. Moreover, the “proliferation (absolute cell number)” value in [7] (10 μM) is recorded as “completely suppressed proliferation”; in data set [7] (doses up to 3 μM, 96 hours) it was “modestly reduced proliferation”.
For the molecule `C/C(=C\c1csc(C)n1)[C@@H]1C[C@@H]2O[C@]2(C)CCC[C@H](C)[C@H](O)[C@@H](C)C(=O)C(C)(C)[C@@H](O)CC(=O)O1` [epothilone, epothilone B, reference compound], the “frequency of multipolar mitotic spindle formation, single agent” value in the data set on TOV-21G cells [5] (0.5 nM, control 0.9%) was 29.9%.

Values taken from PMC5356834 (Oncotarget, 2016).
